Results: the OligoGym collection
“And” between values parts separate entries of the source, which are not always exact repeats. Equal values may be shown once. After the bases stand the sugars from the 5' end (letter, count) and the backbone: PS all phosphorothioate, else s phosphorothioate and o phosphodiester by linkage. Methylation of C is not given here. e = 2'-O-(2-methoxyethyl) (MOE); k = constrained ethyl (cEt); d = 2'-deoxy (DNA); m = 2'-O-methyl

Target: HSD17B13
Settings: ASO, HepaRG

Sequence	target mRNA inhibition (1 µM)	other results
ACCACACTAATGAATC (sugars k3 d10 k3, PS)	54%	
ACCACATAGCTAACTC (sugars k3 d10 k3, PS)	50%	
ACCCAAGCTACCTCCA (sugars k3 d10 k3, PS)	9%	
ACCCTTAGGAAAGCTC (sugars k3 d10 k3, PS)	52%	
ACCGTATTCCCAACGC (sugars k3 d10 k3, PS)	90%	target mRNA inhibition (0.02 µM): 14%; target mRNA inhibition (0.078 µM): 35%; target mRNA inhibition (0.313 µM): 76%; target mRNA inhibition (1.25 µM): 83%; target mRNA inhibition (5 µM): 94%
ACCGTTTTGGGCTAAT (sugars kkdddddddddkekek, PS)	76%	target mRNA inhibition (0.02 µM): 23%; target mRNA inhibition (0.078 µM): 24%; target mRNA inhibition (0.313 µM): 37%; target mRNA inhibition (1.25 µM): 66%; target mRNA inhibition (5 µM): 78%
ACCGUTTTGGGCTAAT (sugars k3 d1 m1 d8 k3, PS)	65%	
ACCTATGGTCTAACAC (sugars k3 d10 k3, PS)	14%	
ACCTCAAATGTCTTGG (sugars k3 d10 k3, PS)	17%	
ACCTGATTTAGAGAGC (sugars k3 d10 k3, PS)	65%	
ACCTTATTAATATCCC (sugars k3 d10 k3, PS)	71% and 50%	target mRNA inhibition (0.02 µM): 0%; target mRNA inhibition (0.078 µM): 0%; target mRNA inhibition (0.313 µM): 0%; target mRNA inhibition (1.25 µM): 72%; target mRNA inhibition (5 µM): 90%
ACCTTCCCTGTGTAAA (sugars k3 d10 k3, PS)	60%	
ACGCATGCGCAGTGAC (sugars k3 d10 k3, PS)	52%	
ACTAATATTGAGGCAC (sugars k3 d9 k3 e1, PS)	62%	
ACTAATCTCAGTACTC (sugars k3 d10 k3, PS)	45%	
ACTAATGAATCATGAT (sugars k3 d10 k3, PS)	39%	
ACTACAAGAGGTTATT (sugars k3 d1 m1 d8 k3, PS)	29%	
ACTACAAGAGGTTATT (sugars kkdddddddddkekek, PS)	42%	
ACTATGTAATAGGCAG (sugars k3 d10 k3, PS)	85%	target mRNA inhibition (0.02 µM): 33%; target mRNA inhibition (0.078 µM): 31%; target mRNA inhibition (0.313 µM): 71%; target mRNA inhibition (1.25 µM): 88%; target mRNA inhibition (5 µM): 94%
ACTCGGGAAGTTTAGA (sugars k3 d10 k3, PS)	26%	
ACTGAAATTGATACAC (sugars k3 d10 k3, PS)	49%	
ACTGAAGGCTGTGTAC (sugars k3 d10 k3, PS)	14%	
ACTGATTTAGTTGGTA (sugars k3 d10 k3, PS)	55%	

Sequence	target mRNA inhibition (1 µM)	other results
ACTGTCCCAGCATTAT (sugars k3 d10 k3, PS)	40%	
ACTGTGACGATGTGGC (sugars k3 d10 k3, PS)	40%	
ACTTCATAGTGGACTT (sugars k3 d10 k3, PS)	61%	
ACTTGAATTCTGTGTC (sugars k3 d10 k3, PS)	52%	
AGAAGATCGGCTGGAT (sugars k3 d10 k3, PS)	29%	
AGAATAGAGTTGCACC (sugars kkdddddddddkekek, PS)	59%	
AGAATAGTCTTCAGCA (sugars k3 d10 k3, PS)	80%	
AGAAUAGAGTTGCACC (sugars k3 d1 m1 d8 k3, PS)	49%	
AGACAGGGTGGTAACG (sugars k3 d10 k3, PS)	51%	
AGACATGAGGTTTTGA (sugars k3 d10 k3, PS)	59%	
AGACTTTGAGACTCTT (sugars k3 d10 k3, PS)	57%	
AGAGACATGAGGTTTT (sugars k3 d10 k3, PS)	77%	target mRNA inhibition (0.02 µM): 18%; target mRNA inhibition (0.078 µM): 16%; target mRNA inhibition (0.313 µM): 47%; target mRNA inhibition (1.25 µM): 69%; target mRNA inhibition (5 µM): 85%
AGAGAGTAATCAGTTT (sugars k3 d1 m1 d8 k3, PS)	25%	
AGAGGCTAGGGAAATC (sugars k3 d10 k3, PS)	63%	
AGAGTTGCACCGTTTT (sugars k3 d9 k3 e1, PS)	78%	target mRNA inhibition (0.02 µM): 0%; target mRNA inhibition (0.078 µM): 0%; target mRNA inhibition (0.313 µM): 26%; target mRNA inhibition (1.25 µM): 55%; target mRNA inhibition (5 µM): 45%
AGAGUCGGTCACCTTT (sugars k3 d1 m1 d8 k3, PS)	55%	
AGATAAAGCTGCCTGC (sugars k3 d1 m1 d8 k3, PS)	35%	
AGATAAAGCTGCCTGC (sugars k3 d9 k3 e1, PS)	44%	
AGATAAAGCTGCCTGC (sugars kkdddddddddkekek, PS)	30%	
AGATATTGATATACGA (sugars k3 d10 k3, PS)	20%	
AGATCGGCTGGATATA (sugars k3 d10 k3, PS)	27%	
AGCAAGCCAACAGAGA (sugars k3 d10 k3, PS)	40%	
AGCAGAATTGTGAACG (sugars k3 d1 m1 d8 k3, PS)	51%	

Sequence	target mRNA inhibition (1 µM)	other results
AGCAGAATTGTGAACG (sugars k3 d9 k3 e1, PS)	56%	
AGCAGAATTGTGAACG (sugars k3 d10 k3, PS)	67%	
AGCATATTCATTTGGC (sugars k3 d10 k3, PS)	61%	
AGCATCAAGACATTCT (sugars k3 d10 k3, PS)	79%	target mRNA inhibition (0.02 µM): 5%; target mRNA inhibition (0.078 µM): 15%; target mRNA inhibition (0.313 µM): 62%; target mRNA inhibition (1.25 µM): 78%; target mRNA inhibition (5 µM): 86%
AGCCAAACTGCTACTG (sugars k3 d10 k3, PS)	78%	
AGCCAGTACAGTTCCT (sugars k3 d1 m1 d8 k3, PS)	65%	
AGCCTAAAATTGTCTA (sugars k3 d10 k3, PS)	53%	
AGCGATAGATCTCTTC (sugars k3 d10 k3, PS)	31%	
AGCGGCAAATTTGCTG (sugars k3 d10 k3, PS)	5%	
AGCTAATGTATGAGGT (sugars k3 d10 k3, PS)	56%	
AGCTAGACAATTGCAA (sugars k3 d10 k3, PS)	30%	
AGGAGTAGTGGAGCCA (sugars k3 d10 k3, PS)	16%	
AGGATAGTCCATGCAA (sugars kkdddddddddkekek, PS)	46%	
AGGCAAGGATACCTGA (sugars k3 d10 k3, PS)	42%	
AGGCCATAATCTTGTG (sugars k3 d10 k3, PS)	33%	
AGGCTAAAATGGTCAT (sugars k3 d10 k3, PS)	36%	
AGGCTAGGGAAATCTT (sugars k3 d9 k3 e1, PS)	55%	
AGGCTAGGGAAATCTT (sugars k3 d10 k3, PS)	62%	
AGGCTTATGAAGTTAG (sugars k3 d10 k3, PS)	57%	
AGGCUAGGGAAATCTT (sugars k3 d1 m1 d8 k3, PS)	41%	
AGGGAATGTTATGTAC (sugars k3 d10 k3, PS)	49%	
AGGGAGACCATGCTGC (sugars k3 d10 k3, PS)	79%	target mRNA inhibition (0.02 µM): 10%; target mRNA inhibition (0.078 µM): 28%; target mRNA inhibition (0.313 µM): 52%; target mRNA inhibition (1.25 µM): 59%; target mRNA inhibition (5 µM): 79%
AGGGTCCACTTTTGGT (sugars k3 d10 k3, PS)	11%	

Sequence	target mRNA inhibition (1 µM)	other results
AGGTAGCTTTTGTCCA (sugars k3 d9 k3 e1, PS)	58%	
AGGTAGCTTTTGTCCA (sugars k3 d10 k3, PS)	56%	
AGGTAGCTTTTGTCCA (sugars kkdddddddddkekek, PS)	26%	
AGTAATTCTAAACTAG (sugars k3 d10 k3, PS)	31%	
AGTACCAAGACACTAA (sugars k3 d10 k3, PS)	66%	
AGTAGTGTAAGCTGAG (sugars k3 d9 k3 e1, PS)	71%	
AGTCGGTCACCTTTCA (sugars k3 d1 m1 d8 k3, PS)	61%	
AGTCGGTCACCTTTCA (sugars kkdddddddddkekek, PS)	55%	
AGTCTGCCTGCCTATT (sugars k3 d10 k3, PS)	47%	
AGTCTTAAACCTTCCC (sugars kkdddddddddkekek, PS)	43%	
AGTGCATCTTAAGATA (sugars k3 d1 m1 d8 k3, PS)	17%	
AGTGCCAAACCAATGT (sugars k3 d9 k3 e1, PS)	60%	
AGTGCCAAACCAATGT (sugars kkdddddddddkekek, PS)	71%	target mRNA inhibition (0.02 µM): 13%; target mRNA inhibition (0.078 µM): 2%; target mRNA inhibition (0.313 µM): 40%; target mRNA inhibition (1.25 µM): 61%; target mRNA inhibition (5 µM): 83%
AGTGCTAAGTAGTAAT (sugars k3 d10 k3, PS)	71%	
AGTTAGAATAGTCTTC (sugars k3 d10 k3, PS)	67%	
AGTTAGCAGCTAAAAT (sugars k3 d10 k3, PS)	33%	
AGTTAGTATAGTTATC (sugars k3 d9 k3 e1, PS)	47%	
AGTTAGTATAGTTATC (sugars k3 d10 k3, PS)	74%	target mRNA inhibition (0.02 µM): 35%; target mRNA inhibition (0.078 µM): 35%; target mRNA inhibition (0.313 µM): 60%; target mRNA inhibition (1.25 µM): 68%; target mRNA inhibition (5 µM): 84%
AGTTATTAGAAGTCAG (sugars k3 d9 k3 e1, PS)	56%	
AGTTTCCTCCACACCG (sugars k3 d10 k3, PS)	28%	
AGTTTTCACCTCAGGT (sugars k3 d10 k3, PS)	82%	
AGTTTTCGGCACTCAG (sugars k3 d10 k3, PS)	16%	
